Assay results published in patent publication US20240174621A1, “METHYLQUINAZOLINONE DERIVATIVES” (Hoffmann-La Roche Inc., priority 2019, published 2024).
Where two headings read alike, the source gives them in different places. Blank lines part the entries; values can stand above or below the compound they belong to.

Experiments:
[1] = tested on: P-ERK in A375 cells expressing V600E mutated BRAF; test: cells; format: cell-based; settings: Homo sapiens, A-375, 1 h, read-out: pERK IC50 (nM) A375
Source text: (§1) DMEM no-phenol red medium supplemented with L-glutamine was purchased from (Thermo Fisher Scientific). Fetal bovine serum (FBS) was purchased from VWR. Advanced ERK phospho-T202/Y204 kit—10,000 tests was purchased from Cisbio cat #64AERPEH. A375 and HCT116 cells were originally obtained from ATCC and banked by the Roche repository.
(§2) A375 is a cellular cancer model expressing V600E mutated BRAF and HCT116 a cellular cancer model expressing WT BRAF. […] ERK 1,2 phosphorylation (terminal member of the phosphorylation cascade of the MAPK pathway) is hereafter reported as main readout for the activation status of the MAPK pathway. Prior to the assay, A375 and HCT116 cell lines are maintained in DMEM no-phenol red medium supplemented with 10% fetal bovine serum (FBS). […] Briefly, 8000 cells/well in 12 μl media/well are plated in the 384-well plate and left overnight in the incubator (at 37° C. with 5% CO2-humidified atmosphere), the following day the plate is treated in duplicate with test compounds, dabrafenib and PLX8394 (the latter two as controls) at the following final drug concentrations: 10 μM-3 μM-1 μM all wells are subjected to DMSO normalization and drug incubation occurs for 1 hour. Then, 4 μl of a 4× lysis buffer supplied with the kit are added to the wells, the plate is then centrifuged for 30 second (300 rcf) and incubated on a plate shaker for 1 h at RT.
At the end of the incubation 4 μL/well of advanced P-ERK antibody solution (prepared according to manufacturer's instruction) followed by 4 μL/well of criptate P-ERK antibody solution (prepared according to manufacturer's instruction) (Cisbio cat #64AERPEH) are added to test wells. […]
(§3) The obtained fluorescence values are processed according to the formula Ratio=[…]*10000 then the average of the ratio on the blank is subtracted to all values.
Mean of the normalized points are fitted with sigmoidal curve and IC50 determined.

[2] = tested on: P-ERK in HCT116 cells expressing WT BRAF; format: cell-based
Source text: as §1, with “repository. 384-well microplates were purchased from Greiner Bio-One, 384-well, (With Lid, HiBase, Low volume cat 784-080).” for “repository.”
as §2
At the end of the incubation 4 μL/well of advanced P-ERK antibody solution (prepared according to manufacturer's instruction) followed by 4 μL/well of criptate P-ERK antibody solution (prepared according to manufacturer's instruction) (Cisbio cat #64AERPEH) are added to test wells.
In order to allow proper data normalization control wells non drug treated reported in the following table are always included in each plate (according to manufacturer's instruction):
The plate is then centrifuged at 300 rcf for 30 second, sealed to prevent evaporation and incubated overnight in the dark at room temperature.
The plate is then analyzed and fluorescence emission value collected through a Pherastast FSX (BMG Labtech) apparatus at […].
as §3
Data are normalized in the case of HCT116 cells (BRAF activation,) considering the average of the ratio (blank subtracted) derived by DMSO only treated cells as 0% and by considering the average of the ratio (blank subtracted) derived by dabrafenib treated cells at the concentration which provides the highest signal as 100%. Individual points are fitted with either sigmoidal or bell shape curves, and the percentage of activation compared to maximum dabrafenib-mediated activation is determined. The EC50 is the concentration at which activation equal to 50% of the maximum achieved by dabrafenib is obtained.
The Percentage of Maximum paradox inducing effect from dabrafenib is determined by evaluating the percentage at which the test compound induce its maximum P-ERK signal as percentage of the highest signal produced by dabrafenib within the dose range tested.

[3] = literature; cited from earlier work
[4] = CSF Kp,uu measurement for brain penetration, mouse; format: in vivo; settings: Single oral dose 10 mg/kg
Procedure: (§4) The CSF Kp,uu is the ratio of the concentration in cerebrospinal fluid (CSF): unbound plasma exposure and Kp,uu values≥1 indicate good brain penetration. For compound Example 1, single oral dose studies in mouse and rat, sequential plasma and CSF concentrations (up to 24 h post dose) were measured by LC-MS/MS to calculate the CSF Kp,uu. For multiple oral dose studies in rat and minipig the plasma and CSF concentrations approximating Tmax (3 h post last dose) were measured by LC-MS/MS and used to calculate the CSF Kp,uu.

P-gp = P-gp apical efflux ratio, LLC-PK1 cell line transfected with MDR1; format: in vitro ADME
Plasma protein binding = format: in vitro ADME; settings: mouse, rat, minipig, monkey, human
[5] = tested on: A375 BRAF V600E cancer cells constituvely expressing luciferase; test: Intracranial implanted A375-Luc; format: in vivo; settings: daily oral 1, 5 and 20 mg/kg for 2 weeks from day 7; immunocompromised mice
Procedure: A375 BRAF V600E cancer cells constituvely expressing luciferase were injected intracranially in immunocompromised mice. Treatment with compound Example 1 was initiated at day 7 from the intracranial injection and continued for 2 weeks. The different groups were subject to daily oral administration of 1 mg/kg, 5 mg/kg and 20 mg/kg of Example 1 respectively.

[6] = BCS (biopharmaceutics classification system); format: physicochemical
[7] = CSF Kp,uu measurement for brain penetration, minipig; format: in vivo; settings: Multiple oral dosing @ 300 mg/kg/day (2-week DRF)
Procedure: as §4

[8] = CSF Kp,uu measurement for brain penetration, rat; format: in vivo
Procedure: as §4

[9] = read-out: p-ERK EC50 (nM) conc. (nM) at which the compound induces P-ERK activation of 50% of that induced by dabrafenib (Positive control paradox inducer) HCT-116; HCT-116 cells; not applicable if activation does not reach 50% of dabrafenib maximum
[10] = HCT-116 cells; maximum P-ERK signal as percentage of highest dabrafenib signal

SMILES: CCCS(=O)(=O)Nc1ccc(F)c(Oc2ccc3ncn(C)c(=O)c3c2)c1C#N [AR-25]
- IC50 [1]: 1.1 nM
- EC50 [2, 9]: 9.6 nM

- IC50 [1]: 406 nM
- EC50 [2, 9]: > 1000 nM
SMILES: CN(C)S(=O)(=O)Nc1ccc(Cl)c(Oc2ccc3ncn(C)c(=O)c3c2)c1C#N [AR-30]
- Percentage of Maximum paradox inducing effect from dabrafenib [2, 10]: 59%

- IC50 [1]: 311 nM
- EC50 ([2]; HCT-116 cells; not applicable if activation does not reach 50% of dabrafenib maximum; read-out: p-ERK EC50 (nM) conc. (nM) at which the compound induces P-ERK activation of 50% of that induced by dabrafenib (Positive control paradox inducer) HCT-116): > 1000 nM
SMILES: Cn1cnc2ccc(Oc3c(Cl)ccc(NS(=O)(=O)N4CCCC4)c3C#N)cc2c1=O [AR-31]
- Percentage of Maximum paradox inducing effect from dabrafenib [2, 10]: 51.2%

SMILES: CC(C)(C)c1nc(-c2cccc(NS(=O)(=O)c3c(F)cccc3F)c2F)c(-c2ccnc(N)n2)s1 [Dabrafenib]
- Brain permeability [3]: very poor brain permerability

SMILES: COC(=O)N[C@@H](C)CNc1nccc(-c2cn(C(C)C)nc2-c2cc(Cl)cc(NS(C)(=O)=O)c2F)n1 [Encorafenib]
- Brain permeability [3]: very poor brain permerability

- Mouse CSF Kp,uu, Class [4]: High
- Kp uu ([4]; mouse, CSF / unbound plasma): ≥ 1
- P-gp Apical Efflux ratio, Class (P-gp; LLC-PK1 transfected with MDR1): Low
- efflux ratio (P-gp; human, LLC-PK1 transfected with MDR1, presence/absence of P-gp inhibitor): 1.5
- Plasma protein binding, Class (Plasma protein binding): Very high
- fraction unbound (Plasma protein binding; plasma): ≤ 0.01
- BCS (biopharmaceutics classific. system) Class [6]: 2
- Minipig CSF Kp,uu, Class [7]: High
- Kp uu at 3 h ([7]; minipig, CSF / unbound plasma, 3 h post last dose): ≥ 1
- Rat CSF Kp,uu, Class ([8]; Multiple oral dosing @ 300 mg/kg/day (2-week DRF)): High
- Rat CSF Kp,uu, Class ([8]; Single oral dose 20 mg/kg): High
- Kp uu at 3 h ([8]; rat, CSF / unbound plasma, Multiple oral dosing @ 300 mg/kg/day (2-week DRF), 3 h post last dose): ≥ 1
- Kp uu ([8]; rat, CSF / unbound plasma, Single oral dose 20 mg/kg): ≥ 1
SMILES: Cn1cnc2ccc(Oc3c(F)ccc(NS(=O)(=O)N4CC[C@@H](F)C4)c3C#N)cc2c1=O [Example 1, (3R)-N-[2-cyano-4-fluoro-3-(3-methyl-4-oxo-quinazolin-6-yl)oxy-phenyl]-3-fluoro-pyrrolidine-1-sulfonamide]
- Antitumor activity, intracranial A375-Luc [5]: dose dependent antitumor activity
- Temporal relationship of plasma and CSF (distribution into CSF) ([8]; single dose rat PK study, up to 24 h post dose): (PK) study and indicated fast and extensive distribution into CSF.

SMILES: Cn1cnc2ccc(Oc3c(F)ccc(NS(=O)(=O)N4CC[C@H](F)C4)c3C#N)cc2c1=O [Example 2, (3S)-N-[2-cyano-4-fluoro-3-(3-methyl-4-oxo-quinazolin-6-yl)oxy-phenyl]-3-fluoro-pyrrolidine-1-sulfonamide]
- Percentage of Maximum paradox inducing effect from dabrafenib [2, 10]: 46.2%

SMILES: CCCS(=O)(=O)Nc1ccc(F)c(C(=O)c2c[nH]c3ncc(-c4ccc(Cl)cc4)cc23)c1F [Vemurafenib]
- Brain permeability [3]: very poor brain permerability
